Data as given in PubChem BioAssay (NCI).
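Where inhibition never reached the appropriate level, the endpoint shown equals the highest concentration tested. Otherwise, values were interpolated linearly from a five-concentration, 48-hour dose response in 96-well plates. TGI: total growth inhibition.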

tested on: DMS 273 small cell lung; assay: NCI anticancer screen, dose series, 48 h

| SMILES | TGI |
| --- | --- |
| NC1=NN(c2ccccc2)C(=O)C1C(=O)CCC(=O)Nc1cccc(C(F)(F)F)c1 (configuration not stated) | > 100 µM |
| CC1=C(C)CC2(CCCCC2=O)S(=O)C1 (configuration not stated) | > 100 µM |
| COC(=O)C1=NC(=S)NC(c2ccccc2)C1c1nc2ccccc2s1 (configuration not stated) | > 100 µM |
| Cc1noc(C)c1CCCOC1COc2ccccc2OCCOCCOc2ccccc2OC1 | > 100 µM |
| CCN(CC)C(=O)c1cc(OC(C)C)ccc1-c1c(C)cc(OC(C)C)c(OC)c1OC | > 100 µM |
| C=CCCCCCCCCC(=O)NS(=O)(=O)c1ccccc1 | > 100 µM |

tested on: ACHN renal; assay: NCI anticancer screen, dose series, 48 h

| SMILES | TGI |
| --- | --- |
| NC1=NN(c2ccccc2)C(=O)C1C(=O)CCC(=O)Nc1cccc(C(F)(F)F)c1 (configuration not stated) | > 100 µM |
| CC1=C2C(=O)O[C@@H](c3ccoc3)[C@]2(C)CCC1 | > 100 µM |
| CC1=C(C)CC2(CCCCC2=O)S(=O)C1 (configuration not stated) | > 100 µM |
| COC(=O)C1=NC(=S)NC(c2ccccc2)C1c1nc2ccccc2s1 (configuration not stated) | > 100 µM |
| Cc1noc(C)c1CCCOC1COc2ccccc2OCCOCCOc2ccccc2OC1 | > 100 µM |
| CCN(CC)C(=O)c1cc(OC(C)C)ccc1-c1c(C)cc(OC(C)C)c(OC)c1OC | > 100 µM |
| Cc1cccc(NC(=O)C(=O)Cc2nc3ccccc3[nH]c2=O)c1C | > 100 µM |
| C=CCCCCCCCCC(=O)NS(=O)(=O)c1ccccc1 | > 100 µM |

tested on: SR leukemia; assay: NCI anticancer screen, dose series, 48 h

| SMILES | TGI |
| --- | --- |
| NC1=NN(c2ccccc2)C(=O)C1C(=O)CCC(=O)Nc1cccc(C(F)(F)F)c1 (configuration not stated) | > 100 µM |
| CC1=C2C(=O)O[C@@H](c3ccoc3)[C@]2(C)CCC1 | > 100 µM |
| CC1=C(C)CC2(CCCCC2=O)S(=O)C1 (configuration not stated) | > 100 µM |
| COC(=O)C1=NC(=S)NC(c2ccccc2)C1c1nc2ccccc2s1 (configuration not stated) | > 100 µM |
| CCN(CC)C(=O)c1cc(OC(C)C)ccc1-c1c(C)cc(OC(C)C)c(OC)c1OC | > 100 µM |
| Cc1cccc(NC(=O)C(=O)Cc2nc3ccccc3[nH]c2=O)c1C | > 100 µM |

tested on: RXF 393 renal; assay: NCI anticancer screen, dose series, 48 h

| SMILES | TGI |
| --- | --- |
| NC1=NN(c2ccccc2)C(=O)C1C(=O)CCC(=O)Nc1cccc(C(F)(F)F)c1 (configuration not stated) | > 100 µM |
| CC1=C(C)CC2(CCCCC2=O)S(=O)C1 (configuration not stated) | > 100 µM |
| COC(=O)C1=NC(=S)NC(c2ccccc2)C1c1nc2ccccc2s1 (configuration not stated) | > 100 µM |
| Cc1noc(C)c1CCCOC1COc2ccccc2OCCOCCOc2ccccc2OC1 | > 100 µM |
| CCN(CC)C(=O)c1cc(OC(C)C)ccc1-c1c(C)cc(OC(C)C)c(OC)c1OC | > 100 µM |
| Cc1cccc(NC(=O)C(=O)Cc2nc3ccccc3[nH]c2=O)c1C | > 100 µM |
| C=CCCCCCCCCC(=O)NS(=O)(=O)c1ccccc1 | > 100 µM |

tested on: SNB-19 CNS; assay: NCI anticancer screen, dose series, 48 h

| SMILES | TGI |
| --- | --- |
| NC1=NN(c2ccccc2)C(=O)C1C(=O)CCC(=O)Nc1cccc(C(F)(F)F)c1 (configuration not stated) | > 100 µM |
| CC1=C2C(=O)O[C@@H](c3ccoc3)[C@]2(C)CCC1 | > 100 µM |
| CC1=C(C)CC2(CCCCC2=O)S(=O)C1 (configuration not stated) | > 100 µM |
| COC(=O)C1=NC(=S)NC(c2ccccc2)C1c1nc2ccccc2s1 (configuration not stated) | > 100 µM |
| Cc1noc(C)c1CCCOC1COc2ccccc2OCCOCCOc2ccccc2OC1 | > 100 µM |
| CCN(CC)C(=O)c1cc(OC(C)C)ccc1-c1c(C)cc(OC(C)C)c(OC)c1OC | > 100 µM |
| Cc1cccc(NC(=O)C(=O)Cc2nc3ccccc3[nH]c2=O)c1C | > 100 µM |
| C=CCCCCCCCCC(=O)NS(=O)(=O)c1ccccc1 | > 100 µM |

tested on: K-562 leukemia; assay: NCI anticancer screen, dose series, 48 h

| SMILES | TGI |
| --- | --- |
| NC1=NN(c2ccccc2)C(=O)C1C(=O)CCC(=O)Nc1cccc(C(F)(F)F)c1 (configuration not stated) | > 100 µM |
| CC1=C2C(=O)O[C@@H](c3ccoc3)[C@]2(C)CCC1 | > 100 µM |
| CC1=C(C)CC2(CCCCC2=O)S(=O)C1 (configuration not stated) | > 100 µM |
| Cc1noc(C)c1CCCOC1COc2ccccc2OCCOCCOc2ccccc2OC1 | > 100 µM |
| CCN(CC)C(=O)c1cc(OC(C)C)ccc1-c1c(C)cc(OC(C)C)c(OC)c1OC | > 100 µM |
| Cc1cccc(NC(=O)C(=O)Cc2nc3ccccc3[nH]c2=O)c1C | > 100 µM |
| C=CCCCCCCCCC(=O)NS(=O)(=O)c1ccccc1 | > 100 µM |

tested on: UACC-62 melanoma; assay: NCI anticancer screen, dose series, 48 h

| SMILES | TGI |
| --- | --- |
| NC1=NN(c2ccccc2)C(=O)C1C(=O)CCC(=O)Nc1cccc(C(F)(F)F)c1 (configuration not stated) | > 100 µM |
| CC1=C2C(=O)O[C@@H](c3ccoc3)[C@]2(C)CCC1 | > 100 µM |
| CC1=C(C)CC2(CCCCC2=O)S(=O)C1 (configuration not stated) | > 100 µM |
| COC(=O)C1=NC(=S)NC(c2ccccc2)C1c1nc2ccccc2s1 (configuration not stated) | > 100 µM |
| Cc1noc(C)c1CCCOC1COc2ccccc2OCCOCCOc2ccccc2OC1 | > 100 µM |
| CCN(CC)C(=O)c1cc(OC(C)C)ccc1-c1c(C)cc(OC(C)C)c(OC)c1OC | > 100 µM |
| Cc1cccc(NC(=O)C(=O)Cc2nc3ccccc3[nH]c2=O)c1C | > 100 µM |
| C=CCCCCCCCCC(=O)NS(=O)(=O)c1ccccc1 | > 100 µM |

tested on: RPMI-8226 leukemia; assay: NCI anticancer screen, dose series, 48 h

| SMILES | TGI |
| --- | --- |
| CC1=C2C(=O)O[C@@H](c3ccoc3)[C@]2(C)CCC1 | > 100 µM |
| CC1=C(C)CC2(CCCCC2=O)S(=O)C1 (configuration not stated) | > 100 µM |
| CCN(CC)C(=O)c1cc(OC(C)C)ccc1-c1c(C)cc(OC(C)C)c(OC)c1OC | > 100 µM |
| C=CCCCCCCCCC(=O)NS(=O)(=O)c1ccccc1 | > 100 µM |

tested on: M19-MEL melanoma; assay: NCI anticancer screen, dose series, 48 h

| SMILES | TGI |
| --- | --- |
| NC1=NN(c2ccccc2)C(=O)C1C(=O)CCC(=O)Nc1cccc(C(F)(F)F)c1 (configuration not stated) | > 100 µM |
| CC1=C2C(=O)O[C@@H](c3ccoc3)[C@]2(C)CCC1 | > 100 µM |
| CC1=C(C)CC2(CCCCC2=O)S(=O)C1 (configuration not stated) | > 100 µM |
| COC(=O)C1=NC(=S)NC(c2ccccc2)C1c1nc2ccccc2s1 (configuration not stated) | > 100 µM |
| Cc1noc(C)c1CCCOC1COc2ccccc2OCCOCCOc2ccccc2OC1 | > 100 µM |
| Cc1cccc(NC(=O)C(=O)Cc2nc3ccccc3[nH]c2=O)c1C | > 100 µM |
| C=CCCCCCCCCC(=O)NS(=O)(=O)c1ccccc1 | > 100 µM |

tested on: KM12 colon; assay: NCI anticancer screen, dose series, 48 h

| SMILES | TGI |
| --- | --- |
| NC1=NN(c2ccccc2)C(=O)C1C(=O)CCC(=O)Nc1cccc(C(F)(F)F)c1 (configuration not stated) | > 100 µM |
| CC1=C2C(=O)O[C@@H](c3ccoc3)[C@]2(C)CCC1 | > 100 µM |
| CC1=C(C)CC2(CCCCC2=O)S(=O)C1 (configuration not stated) | > 100 µM |
| COC(=O)C1=NC(=S)NC(c2ccccc2)C1c1nc2ccccc2s1 (configuration not stated) | > 100 µM |
| Cc1noc(C)c1CCCOC1COc2ccccc2OCCOCCOc2ccccc2OC1 | > 100 µM |
| CCN(CC)C(=O)c1cc(OC(C)C)ccc1-c1c(C)cc(OC(C)C)c(OC)c1OC | > 100 µM |
| Cc1cccc(NC(=O)C(=O)Cc2nc3ccccc3[nH]c2=O)c1C | > 100 µM |
| C=CCCCCCCCCC(=O)NS(=O)(=O)c1ccccc1 | > 100 µM |

tested on: SK-MEL-28 melanoma; assay: NCI anticancer screen, dose series, 48 h

| SMILES | TGI |
| --- | --- |
| NC1=NN(c2ccccc2)C(=O)C1C(=O)CCC(=O)Nc1cccc(C(F)(F)F)c1 (configuration not stated) | > 100 µM |
| CC1=C2C(=O)O[C@@H](c3ccoc3)[C@]2(C)CCC1 | > 100 µM |
| CC1=C(C)CC2(CCCCC2=O)S(=O)C1 (configuration not stated) | > 100 µM |
| COC(=O)C1=NC(=S)NC(c2ccccc2)C1c1nc2ccccc2s1 (configuration not stated) | > 100 µM |
| Cc1noc(C)c1CCCOC1COc2ccccc2OCCOCCOc2ccccc2OC1 | > 100 µM |
| CCN(CC)C(=O)c1cc(OC(C)C)ccc1-c1c(C)cc(OC(C)C)c(OC)c1OC | > 100 µM |
| Cc1cccc(NC(=O)C(=O)Cc2nc3ccccc3[nH]c2=O)c1C | > 100 µM |
| C=CCCCCCCCCC(=O)NS(=O)(=O)c1ccccc1 | > 100 µM |

tested on: SK-MEL-5 melanoma; assay: NCI anticancer screen, dose series, 48 h

| SMILES | TGI |
| --- | --- |
| NC1=NN(c2ccccc2)C(=O)C1C(=O)CCC(=O)Nc1cccc(C(F)(F)F)c1 (configuration not stated) | > 100 µM |
| CC1=C2C(=O)O[C@@H](c3ccoc3)[C@]2(C)CCC1 | > 100 µM |
| CC1=C(C)CC2(CCCCC2=O)S(=O)C1 (configuration not stated) | > 100 µM |
| COC(=O)C1=NC(=S)NC(c2ccccc2)C1c1nc2ccccc2s1 (configuration not stated) | > 100 µM |
| Cc1noc(C)c1CCCOC1COc2ccccc2OCCOCCOc2ccccc2OC1 | > 100 µM |
| CCN(CC)C(=O)c1cc(OC(C)C)ccc1-c1c(C)cc(OC(C)C)c(OC)c1OC | > 100 µM |
| Cc1cccc(NC(=O)C(=O)Cc2nc3ccccc3[nH]c2=O)c1C | > 100 µM |

tested on: UACC-257 melanoma; assay: NCI anticancer screen, dose series, 48 h

| SMILES | TGI |
| --- | --- |
| NC1=NN(c2ccccc2)C(=O)C1C(=O)CCC(=O)Nc1cccc(C(F)(F)F)c1 (configuration not stated) | > 100 µM |
| CC1=C2C(=O)O[C@@H](c3ccoc3)[C@]2(C)CCC1 | > 100 µM |
| CC1=C(C)CC2(CCCCC2=O)S(=O)C1 (configuration not stated) | > 100 µM |
| COC(=O)C1=NC(=S)NC(c2ccccc2)C1c1nc2ccccc2s1 (configuration not stated) | > 100 µM |
| Cc1noc(C)c1CCCOC1COc2ccccc2OCCOCCOc2ccccc2OC1 | > 100 µM |
| Cc1cccc(NC(=O)C(=O)Cc2nc3ccccc3[nH]c2=O)c1C | > 100 µM |
| C=CCCCCCCCCC(=O)NS(=O)(=O)c1ccccc1 | > 100 µM |

tested on: HOP-62 NSCLC; assay: NCI anticancer screen, dose series, 48 h

| SMILES | TGI |
| --- | --- |
| NC1=NN(c2ccccc2)C(=O)C1C(=O)CCC(=O)Nc1cccc(C(F)(F)F)c1 (configuration not stated) | > 100 µM |
| CC1=C2C(=O)O[C@@H](c3ccoc3)[C@]2(C)CCC1 | > 100 µM |
| CC1=C(C)CC2(CCCCC2=O)S(=O)C1 (configuration not stated) | > 100 µM |
| COC(=O)C1=NC(=S)NC(c2ccccc2)C1c1nc2ccccc2s1 (configuration not stated) | > 100 µM |
| Cc1noc(C)c1CCCOC1COc2ccccc2OCCOCCOc2ccccc2OC1 | > 100 µM |
| CCN(CC)C(=O)c1cc(OC(C)C)ccc1-c1c(C)cc(OC(C)C)c(OC)c1OC | > 100 µM |
| Cc1cccc(NC(=O)C(=O)Cc2nc3ccccc3[nH]c2=O)c1C | > 100 µM |
| C=CCCCCCCCCC(=O)NS(=O)(=O)c1ccccc1 | > 100 µM |

tested on: HL-60(TB) leukemia; assay: NCI anticancer screen, dose series, 48 h

| SMILES | TGI |
| --- | --- |
| NC1=NN(c2ccccc2)C(=O)C1C(=O)CCC(=O)Nc1cccc(C(F)(F)F)c1 (configuration not stated) | > 100 µM |
| CC1=C2C(=O)O[C@@H](c3ccoc3)[C@]2(C)CCC1 | > 100 µM |
| CC1=C(C)CC2(CCCCC2=O)S(=O)C1 (configuration not stated) | > 100 µM |
| COC(=O)C1=NC(=S)NC(c2ccccc2)C1c1nc2ccccc2s1 (configuration not stated) | > 100 µM |
| Cc1noc(C)c1CCCOC1COc2ccccc2OCCOCCOc2ccccc2OC1 | > 100 µM |
| CCN(CC)C(=O)c1cc(OC(C)C)ccc1-c1c(C)cc(OC(C)C)c(OC)c1OC | 96.4 µM |
| Cc1cccc(NC(=O)C(=O)Cc2nc3ccccc3[nH]c2=O)c1C | > 100 µM |
| C=CCCCCCCCCC(=O)NS(=O)(=O)c1ccccc1 | > 100 µM |
